Measured values taken from patent US20250026724A1, “(1,4,5-TRISUBSTITUTED 1H-PYRAZOL-3-YL)OXY-2-ALKYLTHIOALKYL ACIDS AND -ALKYL ACID DERIVATIVES, SALTS THEREOF AND USE THEREOF AS ACTIVE HERBICIDAL INGREDIENTS” (BAYER AKTIENGESELLSCHAFT, priority 2021, published 2025).

Assays:
Type in all cases: in vivo
[1] = tested on: Abutilon theophrasti (ABUTH); test: Post-emergence herbicidal action, greenhouse pot trial; settings: visual rating after about 3 weeks
Summary of the method: (§1)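 Visual % activity versus untreated controls (100% = plants died, 0% = like control), scored about 3 weeks post-spray. Plants grown in sandy loam pots under greenhouse conditions were treated at the one-leaf stage with WP or EC formulations at 320 g/ha or lower.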

[2] = tested on: Alopecurus myosuroides (ALOMY); test: as above; settings: 320 g/ha, visual rating after about 3 weeks
Summary of the method: as §1

[3] = tested on: Amaranthus retroflexus (AMARE); test: as above; settings: visual rating after about 3 weeks
Summary of the method: as §1

Avena fatua (AVEFA) = test: as above; settings: 320 g/ha, visual rating after about 3 weeks
Summary of the method: as §1

Bassia scoparia (KCHSC) = test: as above
Summary of the method: as §1

[4] = tested on: Digitaria sanguinalis (DIGSA); test: as above; settings: visual rating after about 3 weeks
Summary of the method: as §1

[5] = tested on: Echinochloa crus-galli (ECHCG); test: as above; settings: 320 g/ha, visual rating after about 3 weeks; for pest or weed control at 320 g/ha: Echinochloa crus-galli, 504 h, read-out: Post-emergence effect at 320 g/ha against ECHCG in %
Summary of the method: as §1

Lolium rigidum (LOLRI) = test: as above; settings: 320 g/ha, visual rating after about 3 weeks
Summary of the method: as §1

[6] = tested on: Matricaria inodora (MATIN); test: as above; settings: visual rating after about 3 weeks; for pest or weed control at 320 g/ha: read-out: Post-emergence effect at 320 g/ha against MATIN in %
Summary of the method: as §1

[7] = tested on: Polygonum convolvulus (POLCO); test: as above; settings: visual rating after about 3 weeks
Summary of the method: as §1

Setaria viridis (SETVI) = test: as above; settings: visual rating after about 3 weeks; for pest or weed control at 320 g/ha: Setaria viridis, 504 h, read-out: Post-emergence effect at 320 g/ha against SETVI in %
Summary of the method: as §1

[8] = tested on: Triticum aestivum (TRZAS); test: Post-emergence crop plant compatibility, greenhouse pot trial
Procedure: Seeds of monocotyledonous and dicotyledonous weeds and crop plants are placed in sandy loam in plastic or organic planting pots, covered with soil and cultivated in a greenhouse under controlled growth conditions. 2 to 3 weeks after sowing, the trial plants are treated at the one-leaf stage. The compounds of the invention, formulated in the form of wettable powders (WP) or as emulsion concentrates (EC), are then sprayed onto the green parts of the plants as aqueous suspension or emulsion with addition of 0.5% additive at a water application rate equivalent to 600 l/ha. After about 3 weeks of keeping the trial plants in the greenhouse under optimum growth conditions, the effect of the preparations is rated visually in comparison to untreated controls. For example, 100% activity=the plants have died, 0% activity=like control plants.
The observed effects on selected crop plants are reported here in comparison to the untreated controls (values in %). The appendices “a”, “b” and “c” give differentiation by dosage used with otherwise the same useful plants tested.
As shown by results from Tables B1 to B19, inventive compounds of the general formula (I) in the case of post-emergence treatment have good herbicidal efficacy against harmful plants, for example Abutilon theophrasti (ABUTH), Alopecurus myosuroides (ALOMY), Amaranthus retroflexus (AMARE), Avena fatua (AVEFA), Digitaria sanguinalis (DIGSA), Echinochloa crus-galli (ECHCG), Bassia scoparia (KCHSC), Lolium rigidum (LOLRI), Matricaria inodora (MATIN), Pharbitis purpurea (PHBPU), Polygonum convolvulus (POLCO), Setaria viridis (SETVI), Veronica persica (VERPE) and Viola tricolor (VIOTR) at an application rate of 320 g of active substance or less per hectare, and good crop plant compatibility in the case of organisms such as Oryza sativa (ORYSA), Zea mays (ZEAMX), Brassica napus (BRSNW), Glycine max (GLXMA) and Triticum aestivum (TRZAS) at an application rate of 320 g or less per hectare.

[9] = tested on: Pharbitis purpurea (PHBPU); test: Post-emergence herbicidal action, greenhouse pot trial; settings: Ipomoea purpurea, 504 h, visual rating after about 3 weeks; for pest or weed control at 320 g/ha: read-out: Post-emergence effect at 320 g/ha against PHBPU in %
Summary of the method: as §1

Viola tricolor (VIOTR) = test: as above; settings: Viola tricolor, 504 h, read-out: Post-emergence effect against VIOTR
Summary of the method: as §1

Veronica persica (VERPE) = test: as above; settings: visual rating after about 3 weeks
Summary of the method: as §1

[10] = Tripleurospermum inodorum, 504 h, 320 g/ha

COC(=O)CCOC(=O)C(Oc1nn(-c2ncccc2F)c(-c2ccc(F)nc2)c1Br)SC (racemic) [Example I-32]
0%: Post-emergence effect against TRZAS (crop plant compatibility) ([8]; 20 g/ha, post-emergence, in comparison to untreated controls)
80%: Post-emergence effect at 80 g/ha against ABUTH in % ([1]; 80 g/ha) | Post-emergence effect at 80 g/ha against AMARE in % ([3]; 80 g/ha) | Post-emergence effect at 320 g/ha against AMARE in % ([3]; 320 g/ha) | Post-emergence effect against KCHSC (Bassia scoparia (KCHSC); 80 g/ha) | Post-emergence effect at 320 g/ha against LOLRI in % (Lolium rigidum (LOLRI)) | Post-emergence effect at 80 g/ha against MATIN in % ([6]; 80 g/ha) | Post-emergence effect at 320 g/ha against MATIN in % ([6]; 320 g/ha) | Post-emergence effect at 80 g/ha against POLCO in % ([7]; 80 g/ha) | Post-emergence effect at 320 g/ha against SETVI in % (Setaria viridis (SETVI); 320 g/ha)
90%: Post-emergence effect at 320 g/ha against ABUTH in % ([1]; 320 g/ha) | Post-emergence effect at 320 g/ha against ALOMY in % [2] | Post-emergence effect at 320 g/ha against AVEFA in % (Avena fatua (AVEFA)) | Post-emergence effect against KCHSC (Bassia scoparia (KCHSC); 320 g/ha) | Post-emergence effect at 80 g/ha against DIGSA in % ([4]; 80 g/ha) | Post-emergence effect at 320 g/ha against DIGSA in % ([4]; 320 g/ha) | Post-emergence effect at 320 g/ha against ECHCG in % [5] | Post-emergence effect at 320 g/ha against POLCO in % ([7]; 320 g/ha)

CCOC(=O)C(Oc1nn(-c2cc(F)ccc2F)c(-c2cncc(F)c2)c1Br)SC (centres unmarked) [Example I-03, ethyl {[4-bromo-1-(2,5-difluorophenyl)-5-(5-fluoropyridin-3-yl)-1H-pyrazol-3-yl]oxy}(methylsulfanyl)acetate]
20%: Post-emergence effect at 320 g/ha against TRZAS in % ([8]; in vivo)
90%: pest or weed control at 320 g/ha [5] | pest or weed control at 320 g/ha [6, 10] | pest or weed control at 320 g/ha (Setaria viridis (SETVI); 320 g/ha) | pest or weed control at 80 g/ha (Viola tricolor (VIOTR)) | pest or weed control at 320 g/ha (Viola tricolor (VIOTR))
80%: pest or weed control at 320 g/ha ([1]; Abutilon theophrasti, 504 h, 320 g/ha, read-out: Post-emergence effect at 320 g/ha against ABUTH in %) | pest or weed control at 320 g/ha ([4]; Digitaria sanguinalis, 504 h, 320 g/ha, read-out: Post-emergence effect at 320 g/ha against DIGSA in %) | pest or weed control at 80 g/ha ([6]; Tripleurospermum inodorum, 504 h, 80 g/ha, read-out: Post-emergence effect at 80 g/ha against MATIN in %) | pest or weed control at 320 g/ha [9] | Post-emergence effect at 80 g/ha against SETVI in % (Setaria viridis (SETVI); 80 g/ha) | pest or weed control at 20 g/ha (Viola tricolor (VIOTR))

COC(=O)C(Oc1nn(-c2cc(F)ccc2F)c(-c2cncc(F)c2)c1C1CC1)SC (centres unmarked) [Example I-08]
80%: pest or weed control at 80 g/ha ([3]; Amaranthus retroflexus, 504 h, 80 g/ha, read-out: Post-emergence effect at 80 g/ha against AMARE in %) | pest or weed control at 320 g/ha ([3]; Amaranthus retroflexus, 504 h, 320 g/ha, read-out: Post-emergence effect at 320 g/ha against AMARE in %) | pest or weed control at 320 g/ha [5] | pest or weed control at 320 g/ha [6, 10] | pest or weed control at 80 g/ha ([9]; 80 g/ha, read-out: Post-emergence effect at 80 g/ha against PHBPU in %) | Post-emergence effect at 80 g/ha against VERPE in % (Veronica persica (VERPE); 80 g/ha)
90%: pest or weed control at 320 g/ha [9] | pest or weed control at 80 g/ha ([7]; Fallopia convolvulus, 504 h, 80 g/ha, read-out: Post-emergence effect at 80 g/ha against POLCO in %) | pest or weed control at 320 g/ha ([7]; Fallopia convolvulus, 504 h, 320 g/ha, read-out: Post-emergence effect at 320 g/ha against POLCO in %) | pest or weed control at 320 g/ha (Setaria viridis (SETVI); 320 g/ha) | pest or weed control at 320 g/ha (Veronica persica (VERPE); Veronica persica, 504 h, 320 g/ha, read-out: Post-emergence effect at 320 g/ha against VERPE in %) | pest or weed control at 20 g/ha (Viola tricolor (VIOTR)) | pest or weed control at 80 g/ha (Viola tricolor (VIOTR)) | pest or weed control at 320 g/ha (Viola tricolor (VIOTR))
